Results: patent US11761894B2, “Silicon-rhodamine fluorescent probe containing hydrophobic group and use thereof” (AJOU UNIVERSITY INDUSTRY—ACADEMIC COOPERATION FOUNDATION, priority 2019, dated 2023)

Tests used:
[1] = Photophysical properties (excitation/emission wavelength, absolute quantum yield, fluorescence intensity in PBS); format: physicochemical; settings: for Φ (quantum yield): absolute quantum yield
Protocol: All reactions were carried out under an atmosphere of nitrogen or argon in air-dried glassware with magnetic stirring. Air- and/or moisture-sensitive liquids were transferred with syringe. Organic solutions were concentrated by rotary evaporation at 25-60° C. at 15-30 torr. All solvents and common materials were purchased from suppliers and used without further purification. Column chromatography was carried out as “Flash Chromatography” using Biotage MPLC machine. ^1H NMR and ^13C NMR data were recorded on an JEOL ECZ-600R Magnetic Resonance System (600 MHz) in Ajou University. Recorded shifts are reported in parts per million (6): Chemical shift, multiplicity (s=singlet, d=doublet, t=triplet, q=quartet, m=multiplet, br=broad), coupling constant (J, Hz) and integration. Low resolution mass spectrometry (LRMS) was obtained by LC/MS system, Finnigan MSQplus Surveyer (Thermo Scientific) or 6120 Quadrupole LC/MS (Agilent Technologies). The progress of reaction was monitored using thin layer chromatography (TLC) (silica gel 60, F254 0.25 mm), and components were visualized by observation under UV light (254 and 365 nm) or by treating the TLC plates with Phosphonolybdic acid (PMA), KMnO4, or ninhydrin followed by heating. Cell culture reagents including fatal bovine serum, culture media, and antibiotic-antimycotic solution were purchased from GIBCO. MitoTracker Green, and Hoechst were purchased from Invitrogen. The culture dish and glassbottom dish were purchased from CORNING, and SPL. All spectra experiments were performed in a 1×1 cm quartz cuvette. Fluorescence emission spectra were recorded on JASCO FP-8200 spectrofluorometer, and UV absorption spectra were recorded on JASCO V-670 spectrophotometer. Absolute quantum yield was measured by QE-2000 (Otsuka Electronics).

[2] = system: mitochondria in HeLa cells; assay: Colocalization test of SiR-Mito probes with MitoTracker green in HeLa cells; format: cell-based, human; settings: 1 μM probe, 1 h; for Mitochondria Targeting (Pearson coefficient for colocalization with MitoTracker green): 0.5 μM MitoTracker green
Protocol: HeLa cells were incubated with cell culture media containing 1 μM SiR-Mito probe, and 0.5 μM MitoTracker green. After 1 h, HeLa cells were washed three times with 1×PBS for and observed with a LEICA DMi8 fluorescent microscope. Each experiment was observed using 512-542 nm emitter for FITC channel (for MitoTracker Green), and 663-738 nm exciter, 545-625 nm emitter for Cy5 channel (for SiR-Mito probes). Scale bar: 50 μm.
HeLa human cervical cancer cells were cultured in Dulbecco's modified eagle media (DMEM, GIBCO) containing 10% fetal bovine serum (FBS, GIBCO) and 1% penicillin (GIBCO) at 37° C. in a humidified incubator with 5% CO2. For the fluorescence microscope imaging, cells were harvested using TrypLE™ Express (GIBCO) and resuspended in fresh culture medium. Harvested cells with a density of 4.0×10^3 cells/well were seeded on a HeLa 96 black well plate (CORNING) and incubated for 24 h. Cells were incubated with SiR-Mito probes (1 μM) and MitoTracker Green (0.5 μM) for 60 min. After the incubation, cells were washed with 1×PBS for three times and observed with inverted fluorescence microscope (DMi8, LEICA). Each experiment was observed using a 325-375 nm exciter, 435-485 nm emitter for DAPI channel, 460-500 nm exciter, 512-542 nm emitter for FITC channel, 541-551 nm exciter, 565-605 nm emitter for Rhodamine channel, and 663-738 nm exciter, 545-625 nm emitter for Cy5 channel.
To determine the effect of probe hydrophobicity on the efficiency of targeting to mitochondria, the Pearson coefficient for colocalization of SiR-Mito probes and MitoTracker green, a commercial fluorescent mitochondrial bioprobe, was measured (FIG. 1). For the colocalization test, human cervical cancer HeLa cells were seeded on 96-well plates and incubated for 1 h with 1 μM of each different SiR-Mito probe and 0.5 μM MitoTracker green, washed briefly with 1×PBS, and imaged with a LEICA DMi8 fluorescent microscope using the 40× objective.

For `Cc1ccc(C(=O)NCCO)cc1C1=C2C=CC(=[N+](C)C)C=C2[Si](C)(C)c2cc(N(C)C)ccc21` [SiR-Mito 1, N-(7-(dimethylamino)-10-(5-((2-hydroxyethyl)carbamoyl)-2-methylphenyl)-5,5-dimethyldibenzo[b,e]silin-3(5H)-ylidene)-N-methylmethanaminium], the “Em (emission wavelength)” value [1] was 668 nm, the “Ex (excitation wavelength)” value [1] was 661 nm and the “Φ (quantum yield)” value [1] was 0.32. For the same molecule, the “Intracellular fluorescence (SiR channel)” value [2] was “absence of fluorescence signal”.

With `CCNC(=O)c1ccc(C)c(C2=C3C=CC(=[N+](C)C)C=C3[Si](C)(C)c3cc(N(C)C)ccc32)c1` [SiR-Mito 2, N-(7-(dimethylamino)-10-(5-(ethylcarbamoyl)-2-methylphenyl)-5,5-dimethyldibenzo[b,e]silin-3(5H)-ylidene)-N-methylmethanaminium] the “Em (emission wavelength)” value [1] was 668 nm, the “Ex (excitation wavelength)” value [1] was 662 nm and the “Φ (quantum yield)” value [1] was 0.40. For the same molecule, the “Mitochondria Targeting (Pearson coefficient for colocalization with MitoTracker green)” value (shortened to “Mitochondria Targeting”) [2] was “* (* 0.7 ≤ R < 0.8)”.

For `CCCCNC(=O)c1ccc(C)c(C2=C3C=CC(=[N+](C)C)C=C3[Si](C)(C)c3cc(N(C)C)ccc32)c1` [SiR-Mito 3, N-(10-(5-(butylcarbamoyl)-2-methylphenyl)-7-(dimethylamino)-5,5-dimethyldibenzo[b,e]silin-3(5H)-ylidene)-N-methylmethanaminium], the “Em (emission wavelength)” value [1] was 665 nm, the “Ex (excitation wavelength)” value [1] was 652 nm and the “Φ (quantum yield)” value [1] was 0.29.

In the case of `Cc1ccc(C(=O)NCc2ccccc2)cc1C1=C2C=CC(=[N+](C)C)C=C2[Si](C)(C)c2cc(N(C)C)ccc21` [SiR-Mito 4, N-(10-(5-(benzylcarbamoyl)-2-methylphenyl)-7-(dimethylamino)-5,5-dimethyldibenzo[b,e]silin-3(5H)-ylidene)-N-methylmethanaminium], the “Em (emission wavelength)” value [1] is reported as 666 nm, the “Ex (excitation wavelength)” value [1] is reported as 651 nm and the “Φ (quantum yield)” value [1] is reported as 0.30. The “Mitochondria Targeting” value [2] was “* (* 0.7 ≤ R < 0.8)”.

For `Cc1ccc(C(=O)NCCc2ccccc2)cc1C1=C2C=CC(=[N+](C)C)C=C2[Si](C)(C)c2cc(N(C)C)ccc21` [SiR-Mito 6, N-(7-(dimethylamino)-5,5-dimethyl-10-(2-methyl-5-(phenethylcabamoyl)phenyl)dibenzo[b,e]silin-3(5H)-ylidene)-N-methylmethanaminium], the “Em (emission wavelength)” value [1] was 668 nm, the “Ex (excitation wavelength)” value [1] was 651 nm and the “Φ (quantum yield)” value [1] was 0.30. For the same molecule, the “Mitochondria Targeting” value [2] was “*** (*** 0.9 ≤ R)”.

For `Cc1ccc(C(=O)NC(C)(C)CC(C)(C)C)cc1C1=C2C=CC(=[N+](C)C)C=C2[Si](C)(C)c2cc(N(C)C)ccc21` [SiR-Mito 7, N-(7-(dimethylamino)-5,5-dimethyl-10-(2-methyl-5-((2,4,4-trimethylpentan-2-yl)carbamoyl)phenyl)dibenzo[b,e]silin-3(5H)-ylidene)-N-methylmethanaminium], the “Em (emission wavelength)” value [1] was 667 nm, the “Ex (excitation wavelength)” value [1] was 650 nm and the “Φ (quantum yield)” value [1] was 0.29. For the same molecule, the “Mitochondria Targeting” value [2] was “*** (*** 0.9 ≤ R)”.

For `Cc1ccc(C(=O)NCCC2CCCCC2)cc1C1=C2C=CC(=[N+](C)C)C=C2[Si](C)(C)c2cc(N(C)C)ccc21` [SiR-Mito 9, N-(10-(5-((2-cyclohexylethyl)carbamoyl)-2-methylphenyl)-7-(dimethylamino)-5,5-dimethyldibenzo[b,e]silin-3(5H)-ylidene)-N-methylmethanaminium], the “Em (emission wavelength)” value [1] was 666 nm, the “Ex (excitation wavelength)” value [1] was 652 nm and the “Φ (quantum yield)” value [1] was 0.26. The “Mitochondria Targeting” value [2] was “*** (*** 0.9 ≤ R)”.

With `CCCCCCC(C)NC(=O)c1ccc(C)c(C2=C3C=CC(=[N+](C)C)C=C3[Si](C)(C)c3cc(N(C)C)ccc32)c1` (centres unmarked) [SiR-Mito 10, N-(7-(dimethylamino)-5,5-dimethyl-10-(2-methyl-5-(octan-2-ylcarbamoyl)phenyl)dibenzo[b,e]silin-3(5H)-ylidene)-N-methylmethanaminium] the “Em (emission wavelength)” value [1] was 667 nm, the “Ex (excitation wavelength)” value [1] was 654 nm and the “Φ (quantum yield)” value [1] was 0.27. For the same molecule, the “Mitochondria Targeting” value [2] was “*** (*** 0.9 ≤ R)”.

With “N-(10-(5-((cyclohexylmethyl) carbamoyl)-2-methylphenyl)-7 (dimethylamino)-5,5-dimethyldibenzo[b,e]silin-3(5H)-ylidene)-N-methylmethanaminium [SiR-Mito 5]” the “Em (emission wavelength)” value [1] was 669 nm, the “Ex (excitation wavelength)” value [1] was 651 nm and the “Φ (quantum yield)” value [1] was 0.29. For the same molecule, the “Mitochondria Targeting” value [2] was “* (* 0.7 ≤ R < 0.8)”.
